Measured values: US7235263B2, “Processes for controlling microbial organic compound production” (Kimberly-Clark Worldwide, Inc., priority 2001, dated 2007)

Assays:
Type in all cases: cell-based
Proteus mirabilis = experiment: Growth of aerobically cultivated Proteus mirabilis in urine:TSB, microtiter serial dilution, optical density; conditions: for optical density (bacterial cell growth): 48 hours at 37° C., aerobic
Experimental: Proteus mirabilis was cultured in TSB as described in Example 1 and transferred to a urine:TSB mixture (9:1) and incubated under aerobic conditions as described in Example 1. […] In a 96-well microtiter plate with a lid, 150 microliters of each 10% solution was introduced into the first and second columns of the wells. Using a multi-channel pipette, 150 microliters of urine:TSB mixture was introduced into each well except the first column. Beginning at the second column of wells, serial dilutions were made by removing 150 microliters from the second column and transferring it to the third column. The mixture was mixed by pipetting up and down three times. The serial dilutions continued across each column of the plate and, after column 11, 150 microliters was discarded leaving column 12 as the 0% solution. Each well was then inoculated with 1 microliter of Proteus mirabilis, except for the negative control rows. One to three drops of anti-fogging solution was place on the plate lids with a cotton applicator, and allowed to air dry. The mixtures were incubated for 48 hours at 37° C. under aerobic conditions. After incubation of the samples, each was analyzed for bacterial cell growth utilizing the optical density procedure as set forth in Example 1.

[1] = system: Proteus mirabilis (ATCC 29906); experiment: Bacterial yield of facultatively grown Proteus mirabilis in urine:TSB (from optical density); conditions: Table 7; 10% (w/v) mannitol; facultative
Experimental: Proteus mirabilis (ATCC 29906) were recovered from frozen state by growing the appropriate bacterial coated MicroBank Bead (Pro Lab, Austin Tex.) in 10 mL trypticase soy broth (TSB, Difco, Ann Arbor, Mich.) in a 15 mL sterile loosely tightened screw capped conical tube overnight at 37° C. The tube was held stationary. (E. coli (ATCC 8739), utilized in Example 6 herein, was recovered using the same procedure described herein for Proteus mirabilis). Upon observation of turbidity, the bacterial suspension was checked for purity by isolation plate and Gram stain. Once determined that the isolate was Proteus mirabilis (or E. coli in Example 6), a colony from the isolation plate was transferred to 10 mL of TSB in a 15 mL sterile screw capped conical tube and incubated overnight at 37° C. under facultative conditions. Samples of bacterial suspension resulting from this overnight TSB culture were used to initiate all experiments utilizing Proteus mirabilis bacteria (or E. coli in Example 6).
(§1) Proteus mirabilis was taken from a TSB culture (described in (1) above) and grown under various conditions for use in the Examples. For bacteria to be grown under aerobic conditions, 50 microliters of Proteus mirabilis was taken from a TSB culture prepared as described above and inoculated into a 50 mL volume of a freshly made 9:1 (by volume) pooled adult female urine:TSB mixture into a 250 mL shake flask. This mixture was rotated at 250 rpm at 37° C. overnight to grow the bacteria. For bacteria to be grown under facultative conditions, 10 microliters of Proteus mirabilis was taken from a TSB culture prepared as described above and inoculated into a 10 mL volume of a freshly made 9:1 (by volume) pooled adult female urine:TSB mixture into a 15 mL tube. The tube was loosely fitted with a screw cap, and held stationary at 37° C. overnight to grow the bacteria. For bacteria to be grown under anaerobic conditions, 10 microliters of Proteus mirabilis was taken from a TSB culture prepared as described above and inoculated into a 10 mL volume of a freshly made 9:1 (by volume) pooled adult female urine:TSB mixture into a 15 mL conical tube. The tube was purged with nitrogen and a screw cap tightly closed, and then was held stationary overnight at 37° C. to grow the bacteria.
In this Example, five samples were prepared and analyzed to determine: (1) Bacterial Yield (CFU/mL) calculated from optical density; (3) Percent viability of EPIOCULAR; and (4) EPIOCULAR IL-8. The samples included: (1) Deionized Water; (2) A urine:TSB mixture (9:1 by volume) as described above; (3) A urine:TSB mixture containing Proteus mirabilis bacteria grown under aerobic conditions as described above; (4) A urine:TSB mixture containing Proteus mirabilis bacteria grown under facultative conditions as described above; and (5) A urine:TSB mixture containing Proteus mirabilis bacteria grown under anaerobic conditions as described above.
(§2) In this Example, six different samples were prepared for analysis. The first sample comprised a urine:TSB mixture that was prepared in the same manner as that described in Example 1. […] The tube was loosely fitted with a screw cap, and held stationary at 37° C. overnight to grow the bacteria. […] The fifth sample comprising urine:TSB:Proteus mirabilis (facultatively grown) was prepared in the same manner as that described in Example 1.

[2] = system: Proteus mirabilis (ATCC 29906); experiment: Ammonia production by facultatively grown Proteus mirabilis in urine:TSB (ammonia probe)
Experimental: as §1
Upon completion of the respective incubation periods of the samples, optical density measurements of each sample were taken as described above and ammonia production of the growth solutions was measured using an ammonia combination probe (Beckman, Fullerton, Calif.) by record mV using an Orion pH meter (Orion, Boston, Mass.). Orion ammonia standards (Orion) were used to calibrate the instrument.
as §2

[3] = Table 7, 10% (w/v) mannitol, facultative

Row | Molecule | optical density (bacterial cell growth) (Proteus mirabilis; 0.0097% in urine:TSB) | optical density (bacterial cell growth) (Proteus mirabilis; 0.0195% in urine:TSB) | optical density (bacterial cell growth) (Proteus mirabilis; 0.0391% in urine:TSB) | optical density (bacterial cell growth) (Proteus mirabilis; 0.0785% in urine:TSB) | optical density (bacterial cell growth) (Proteus mirabilis; 0.156% in urine:TSB) | optical density (bacterial cell growth) (Proteus mirabilis; 0.313% in urine:TSB) | optical density (bacterial cell growth) (Proteus mirabilis; 0.625% in urine:TSB) | optical density (bacterial cell growth) (Proteus mirabilis; 1.25% in urine:TSB) | optical density (bacterial cell growth) (Proteus mirabilis; 2.5% in urine:TSB) | optical density (bacterial cell growth) (Proteus mirabilis; 5% in urine:TSB) | optical density (bacterial cell growth) (Proteus mirabilis; 10% in urine:TSB) | Bacterial Yields [1] [CFU/mL] | effect on cell growth (Proteus mirabilis; at elevate concentrations) | effect on cell growth (Proteus mirabilis; at low concentrations) | Ammonia Produced (n = 3) [2, 3] [ppm] | Ammonia/Cell [2, 3] [ppm/10E8CFU] | impact on the production of ammonia in the bacteria ([2]; mannitol in the absence of hydrogen peroxide, 10% (w/v))
1 | mannitol peroxide [24 Hr.] | 0.99 | 0.98 | 0.99 | 0.97 | 0.97 | 0.97 | 0.96 | 0.95 | 0.93 | 0.88 | 0.80 |  |  |  |  |  | 
2 | mannitol peroxide [4.5 Hr.] | 0.97 | 0.98 | 0.99 | 0.99 | 0.98 | 0.99 | 0.93 | 0.99 | 0.97 | 0.87 | 0.04 |  |  |  |  |  | 
3 | mannitol peroxide [3 Hr.] | 0.98 | 0.94 | 0.94 | 0.97 | 0.99 | 0.83 | 0.99 | 0.04 | 0.03 | 0.03 | 0.03 |  |  |  |  |  | 
4 | OC[C@@H](O)[C@@H](O)[C@H](O)[C@H](O)CO [Mannitol, mannitol, reference compound] | 0.98 | 0.98 | 0.97 | 0.97 | 0.92 | 0.92 | 0.98 | 1.02 | 0.99 | 0.89 | 0.87 | 6.91E+8 | little, if any, effect on cell growth | no effect on cell growth | 621.6 ± 1.8 | 83.8 | does not significantly impact the production of ammonia
